Measurements reported in patent US20220356186A1, “PERK INHIBITING PYRROLOPYRIMIDINE COMPOUNDS” (HiberCell, Inc., priority 2019, published 2022).

Key:
[1] = target: T1, EIF2AK3 (PERK) catalytic domain (amino acids 536-1116) (Homo sapiens, UniProt Q9NZJ5); assay: PERK in vitro activity assay (isolated), TR-FRET kinase assay; type: biochemical; details: isolated PERK enzyme, 1.5 μM ATP; read-out: Biochemical IC50
T1 construct: EIF2AK3 (PERK) catalytic domain (amino acids 536-1116)
T1 sequence (Q9NZJ5 536-1116): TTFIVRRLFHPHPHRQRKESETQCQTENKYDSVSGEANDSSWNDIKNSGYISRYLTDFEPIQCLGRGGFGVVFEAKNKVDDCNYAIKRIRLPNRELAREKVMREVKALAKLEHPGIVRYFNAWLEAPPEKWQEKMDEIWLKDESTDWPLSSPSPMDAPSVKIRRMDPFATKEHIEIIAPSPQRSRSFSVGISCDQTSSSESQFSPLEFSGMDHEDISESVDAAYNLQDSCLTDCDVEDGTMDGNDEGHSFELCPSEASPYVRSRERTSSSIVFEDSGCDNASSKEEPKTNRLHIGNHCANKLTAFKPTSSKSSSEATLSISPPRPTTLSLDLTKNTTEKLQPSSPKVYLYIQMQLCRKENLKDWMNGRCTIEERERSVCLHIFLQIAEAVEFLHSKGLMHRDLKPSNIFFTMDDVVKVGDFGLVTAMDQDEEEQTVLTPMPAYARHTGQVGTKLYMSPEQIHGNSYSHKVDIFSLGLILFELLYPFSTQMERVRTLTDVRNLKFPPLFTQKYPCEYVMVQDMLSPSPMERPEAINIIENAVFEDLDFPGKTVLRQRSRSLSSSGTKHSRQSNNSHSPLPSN
How it was run: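 Human PERK catalytic domain (aa 536-1116) phosphorylating 100-200 nM GFP-eIF2a in 50 mM HEPES pH 7.5, 10 mM MgCl2, 1 mM EGTA, 0.01% Brij-35; enzyme-started, 45 min at room temperature. Stopped with 10 mM EDTA, 2 nM Tb-anti-phospho-eIF2a added for 90 min; IC50 from TR-FRET ratios by 4-parameter logistic fit.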

[2] = test system: GFP-eIF2α in HEK293 cells; assay: PERK cellular assay, TR-FRET in HEK293-EGFP-eIF2a cells after tunicamycin-induced ER stress; type: cell-based; details: HEK293-EGFP-eIF2a cells, tunicamycin 2 hours; read-out: Cellular eIF2α IC50
How it was run: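 HEK293 cells stably expressing GFP-eIF2α, plated 5000 cells/well overnight, pretreated with inhibitors 30 min at 37 °C, then ER stress induced with tunicamycin […] for 2 h.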

select kinases = assay: KINOMEscan in vitro competition binding assay for select kinases; details: for KINOMEscan competition binding, inhibition of AURKB: kinase AURKB; for KINOMEscan competition binding, inhibition of AXL: kinase AXL; for KINOMEscan competition binding, inhibition of BLK: kinase BLK; for KINOMEscan competition binding, inhibition of CAMK4: kinase CAMK4; for KINOMEscan competition binding, inhibition of CDK8: kinase CDK8; for KINOMEscan competition binding, inhibition of CDK11: kinase CDK11; for KINOMEscan competition binding, inhibition of CSF1R: kinase CSF1R; for KINOMEscan competition binding, inhibition of EIF2AK1: kinase EIF2AK1; for KINOMEscan competition binding, inhibition of EPHB6: kinase EPHB6; for KINOMEscan competition binding, inhibition of FLT3: kinase FLT3; for KINOMEscan competition binding, inhibition of HIPK4: kinase HIPK4; for KINOMEscan competition binding, inhibition of LOK: kinase LOK; for KINOMEscan competition binding, inhibition of MAP3K2: kinase MAP3K2; for KINOMEscan competition binding, inhibition of MAP3K3: kinase MAP3K3; for KINOMEscan competition binding, inhibition of MAP3K15: kinase MAP3K15; for KINOMEscan competition binding, inhibition of MEK5: kinase MEK5; for KINOMEscan competition binding, inhibition of MKNK2: kinase MKNK2; for KINOMEscan competition binding, inhibition of NEK1: kinase NEK1; for KINOMEscan competition binding, inhibition of NEK5: kinase NEK5; for KINOMEscan competition binding, inhibition of PIK3C2B: kinase PIK3C2B; for KINOMEscan competition binding, inhibition of RIOK2: kinase RIOK2; for KINOMEscan competition binding, inhibition of RIPK1: kinase RIPK1; for KINOMEscan competition binding, inhibition of RIPK2: kinase RIPK2; for KINOMEscan competition binding, inhibition of RIPK5: kinase RIPK5; for KINOMEscan competition binding, inhibition of TESK1: kinase TESK1; for KINOMEscan competition binding, inhibition of TIE2: kinase TIE2; for KINOMEscan competition binding, inhibition of TRKA: kinase TRKA; for KINOMEscan competition binding, inhibition of TRKB: kinase TRKB; for KINOMEscan competition binding, inhibition of TRKC: kinase TRKC; for KINOMEscan competition binding, inhibition of VRK2: kinase VRK2; for KINOMEscan competition binding, inhibition of YANK1: kinase YANK1; for KINOMEscan competition binding, inhibition of YANK2: kinase YANK2; for KINOMEscan competition binding, inhibition of YSK4: kinase YSK4

SMILES | KINOMEscan competition binding, inhibition of AURKB (select kinases) | KINOMEscan competition binding, inhibition of AXL (select kinases) | KINOMEscan competition binding, inhibition of BLK (select kinases) | KINOMEscan competition binding, inhibition of CAMK4 (select kinases) | KINOMEscan competition binding, inhibition of CDK8 (select kinases) | KINOMEscan competition binding, inhibition of CDK11 (select kinases) | KINOMEscan competition binding, inhibition of CSF1R (select kinases) | KINOMEscan competition binding, inhibition of EIF2AK1 (select kinases) | KINOMEscan competition binding, inhibition of EPHB6 (select kinases) | KINOMEscan competition binding, inhibition of FLT3 (select kinases) | KINOMEscan competition binding, inhibition of HIPK4 (select kinases) | KINOMEscan competition binding, inhibition of LOK (select kinases) | KINOMEscan competition binding, inhibition of MAP3K2 (select kinases) | KINOMEscan competition binding, inhibition of MAP3K3 (select kinases) | KINOMEscan competition binding, inhibition of MAP3K15 (select kinases) | KINOMEscan competition binding, inhibition of MEK5 (select kinases) | KINOMEscan competition binding, inhibition of MKNK2 (select kinases) | KINOMEscan competition binding, inhibition of NEK1 (select kinases) | KINOMEscan competition binding, inhibition of NEK5 (select kinases) | KINOMEscan competition binding, inhibition of PIK3C2B (select kinases) | further results
Cc1nc(N)c2c(-c3ccc(NC(=O)C(O)c4cccc(F)c4)cc3C)cn(C)c2n1 (single isomer, unassigned) [Example 1, N-(4-(4-amino-2,7-dimethyl-7H-pyrrolo[2,3-d]pyrimidin-5-yl)-3-methylphenyl)-2-(3-fluorophenyl)-2-hydroxyacetamide] | No Inhibition (“No Inhibition” refers to less than 50% inhibition) | No Inhibition (“No Inhibition” refers to less than 50% inhibition) | No Inhibition (“No Inhibition” refers to less than 50% inhibition) | No Inhibition (“No Inhibition” refers to less than 50% inhibition) | No Inhibition (“No Inhibition” refers to less than 50% inhibition) | No Inhibition (“No Inhibition” refers to less than 50% inhibition) | No Inhibition (“No Inhibition” refers to less than 50% inhibition) | No Inhibition (“No Inhibition” refers to less than 50% inhibition) | No Inhibition (“No Inhibition” refers to less than 50% inhibition) | No Inhibition (“No Inhibition” refers to less than 50% inhibition) | No Inhibition (“No Inhibition” refers to less than 50% inhibition) | No Inhibition (“No Inhibition” refers to less than 50% inhibition) | No Inhibition (“No Inhibition” refers to less than 50% inhibition) | No Inhibition (“No Inhibition” refers to less than 50% inhibition) | No Inhibition (“No Inhibition” refers to less than 50% inhibition) | No Inhibition (“No Inhibition” refers to less than 50% inhibition) | No Inhibition (“No Inhibition” refers to less than 50% inhibition) | No Inhibition (“No Inhibition” refers to less than 50% inhibition) | No Inhibition (“No Inhibition” refers to less than 50% inhibition) | No Inhibition (“No Inhibition” refers to less than 50% inhibition) | IC50 [1]: 1 to 25 nM; IC50 [2]: 26 to 50 nM; KINOMEscan competition binding, inhibition of RIOK2 (select kinases): No Inhibition (“No Inhibition” refers to less than 50% inhibition); KINOMEscan competition binding, inhibition of RIPK1 (select kinases): No Inhibition (“No Inhibition” refers to less than 50% inhibition); KINOMEscan competition binding, inhibition of RIPK2 (select kinases): No Inhibition (“No Inhibition” refers to less than 50% inhibition); KINOMEscan competition binding, inhibition of RIPK5 (select kinases): No Inhibition (“No Inhibition” refers to less than 50% inhibition); KINOMEscan competition binding, inhibition of TESK1 (select kinases): No Inhibition (“No Inhibition” refers to less than 50% inhibition); KINOMEscan competition binding, inhibition of TIE2 (select kinases): No Inhibition (“No Inhibition” refers to less than 50% inhibition); KINOMEscan competition binding, inhibition of TRKA (select kinases): No Inhibition (“No Inhibition” refers to less than 50% inhibition); KINOMEscan competition binding, inhibition of TRKB (select kinases): No Inhibition (“No Inhibition” refers to less than 50% inhibition); KINOMEscan competition binding, inhibition of TRKC (select kinases): No Inhibition (“No Inhibition” refers to less than 50% inhibition); KINOMEscan competition binding, inhibition of VRK2 (select kinases): No Inhibition (“No Inhibition” refers to less than 50% inhibition); KINOMEscan competition binding, inhibition of YANK1 (select kinases): No Inhibition (“No Inhibition” refers to less than 50% inhibition); KINOMEscan competition binding, inhibition of YANK2 (select kinases): No Inhibition (“No Inhibition” refers to less than 50% inhibition); KINOMEscan competition binding, inhibition of YSK4 (select kinases): No Inhibition (“No Inhibition” refers to less than 50% inhibition); Kinase selectivity (select kinases; versus Example 9 and GSK2656157, KINOMEscan, Treespot analysis): more selective
Cc1cccc(CC(=O)N2CCc3c2ccc(-c2cn(C)c4ncnc(N)c24)c3F)n1 [GSK2656157, reference compound] | Inhibition (“Inhibition” refers to greater than 50% inhibition) | Inhibition (“Inhibition” refers to greater than 50% inhibition) | Inhibition (“Inhibition” refers to greater than 50% inhibition) | No inhibition | Inhibition (“Inhibition” refers to greater than 50% inhibition) | Inhibition (“Inhibition” refers to greater than 50% inhibition) | Inhibition (“Inhibition” refers to greater than 50% inhibition) | Inhibition (“Inhibition” refers to greater than 50% inhibition) | Inhibition (“Inhibition” refers to greater than 50% inhibition) | No Inhibition (“No Inhibition” refers to less than 50% inhibition) | No Inhibition (“No Inhibition” refers to less than 50% inhibition) | Inhibition (“Inhibition” refers to greater than 50% inhibition) | Inhibition (“Inhibition” refers to greater than 50% inhibition) | No Inhibition (“No Inhibition” refers to less than 50% inhibition) | No Inhibition (“No Inhibition” refers to less than 50% inhibition) | Inhibition (“Inhibition” refers to greater than 50% inhibition) | No Inhibition (“No Inhibition” refers to less than 50% inhibition) | No Inhibition (“No Inhibition” refers to less than 50% inhibition) | No Inhibition (“No Inhibition” refers to less than 50% inhibition) | No Inhibition (“No Inhibition” refers to less than 50% inhibition) | KINOMEscan competition binding, inhibition of RIOK2 (select kinases): Inhibition (“Inhibition” refers to greater than 50% inhibition); KINOMEscan competition binding, inhibition of RIPK1 (select kinases): Inhibition (“Inhibition” refers to greater than 50% inhibition); KINOMEscan competition binding, inhibition of RIPK2 (select kinases): No Inhibition (“No Inhibition” refers to less than 50% inhibition); KINOMEscan competition binding, inhibition of RIPK5 (select kinases): No Inhibition (“No Inhibition” refers to less than 50% inhibition); KINOMEscan competition binding, inhibition of TESK1 (select kinases): No Inhibition (“No Inhibition” refers to less than 50% inhibition); KINOMEscan competition binding, inhibition of TIE2 (select kinases): No Inhibition (“No Inhibition” refers to less than 50% inhibition); KINOMEscan competition binding, inhibition of TRKA (select kinases): Inhibition (“Inhibition” refers to greater than 50% inhibition); KINOMEscan competition binding, inhibition of TRKB (select kinases): No Inhibition (“No Inhibition” refers to less than 50% inhibition); KINOMEscan competition binding, inhibition of TRKC (select kinases): Inhibition (“Inhibition” refers to greater than 50% inhibition); KINOMEscan competition binding, inhibition of VRK2 (select kinases): Inhibition (“Inhibition” refers to greater than 50% inhibition); KINOMEscan competition binding, inhibition of YANK1 (select kinases): No Inhibition (“No Inhibition” refers to less than 50% inhibition); KINOMEscan competition binding, inhibition of YANK2 (select kinases): No Inhibition (“No Inhibition” refers to less than 50% inhibition); KINOMEscan competition binding, inhibition of YSK4 (select kinases): Inhibition (“Inhibition” refers to greater than 50% inhibition)
